Source: PMC9841532, “Exploring the Effect of Halogenation in a Series of Potent and Selective A2B Adenosine Receptor Antagonists” (Journal of Medicinal Chemistry, 2022)
In brackets after ≈: the same amount, converted by molar mass.

What was measured:
[1] = Solubility determination (nephelometry); format: physicochemical; conditions: 1:99 DMSO/PSB buffer, PBS pH 7, 37 °C
Protocol: The solubility of selected compounds was evaluated by following a previously described method.[31] A 10 mM stock solution of the compound was serially diluted in 100% DMSO, and 2.5 μL of this solution was added to a 384-well UV-transparent plate (Greiner) containing 47.5 μL of PBS (pH = 7). The plate was incubated at 37 °C for 4 h, and the light scattering was measured in a NEPHELOstar Plus reader (BMG LABTECH). The data was fitted to a segmented linear regression for measuring the compound solubility.

[2] = molecular target: T1, A2BAR (Homo sapiens, UniProt P29275); experiment: Cellular impedance label-free assay (xCELLigence) in A2BAR-SNAP cells; format: cell-based; conditions: compound 1 μM, NECA 1 μM, 45 min, n = 4
T1 construct: expressed in transfected cells; host or cells: HEK-293 T cells permanently expressing pRK5-A2BAR^SNAP
T1 sequence (P29275 1-332): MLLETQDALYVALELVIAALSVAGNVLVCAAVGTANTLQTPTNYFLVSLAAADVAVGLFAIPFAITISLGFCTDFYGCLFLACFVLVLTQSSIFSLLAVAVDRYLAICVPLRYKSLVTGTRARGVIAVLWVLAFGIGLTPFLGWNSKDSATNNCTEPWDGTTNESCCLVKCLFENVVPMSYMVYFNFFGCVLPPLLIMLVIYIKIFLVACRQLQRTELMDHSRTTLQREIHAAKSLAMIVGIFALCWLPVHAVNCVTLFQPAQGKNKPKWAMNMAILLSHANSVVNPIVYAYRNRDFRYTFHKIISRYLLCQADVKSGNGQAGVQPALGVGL
Description: To further evaluate the ability of 16b, 16j, 16r, and 16s to preclude A2BAR function in living cells, we took advantage of the cellular impedance label-free method, a widely accepted morphological and functional biosensor of cell status.[39] Accordingly, whole-cell NECA-mediated impedance responses of A2BAR^SNAP cells were monitored in real time in the absence or presence of 16b, 16j, 16r, and 16s.
Figure 4 Blockade of A2BAR-mediated whole-cell label-free responses. (A) Representative example of the impedance signal obtained over the time upon incubation with A2BAR ligands. […] (B) The area under the curve (AUC) derived from the normalized cell index (NCI) shown in (A) was calculated for each condition. Data are expressed as mean ± SEM (n = 4). ***P < 0.001 and **P < 0.01, one-way ANOVA with a Dunnett’s multiple-comparison test when compared to vehicle (Veh).
The xCELLigence RTCA system (Roche) was employed to assess the impact of blocking A2BAR-mediated effects in cellular impedance upon receptor activation, as previously described.[57]−[60] To this end, A2BAR^SNAP cells were growth in 16-well E-plates (Roche), using DMEM supplemented with 1 mM sodium pyruvate, 2 mM L-glutamine, 100 U/mL streptomycin, […] penicillin, and 1.5% (v/v) fetal bovine serum in the presence of 0.5 U/mL of ADA. Of note, wells were previously coated with 50 μL fibronectin (10 μg/mL; Sigma-Aldrich) and the background index for each well was determined with supplemented DMEM (90 μL) in the absence of cells. Subsequently, A2BAR^SNAP cells (90 μL) were plated at a cell density of 10,000 cells/well and grown for 18 h in the RTCA SP device station (Roche) at 37 °C in an atmosphere of 5% CO2. Then, before ligand addition, cell index values were normalized to the same time point using the RTCA software, providing the normalized cell index (NCI). After ligand stimulation, NCI was recorded every 15 s for a total time of at least 45 min. The area under the curve (AUC) for every condition was calculated using GraphPad Prism 9.

[3] = molecular target: T2, hA1AR (Homo sapiens, UniProt P30542); experiment: Radioligand binding competition, [3H]DPCPX, membranes from CHO-A1 cells; conditions: 1 μM, [3H]DPCPX, human CHO cells, n = 2
T2 sequence (P30542 1-326): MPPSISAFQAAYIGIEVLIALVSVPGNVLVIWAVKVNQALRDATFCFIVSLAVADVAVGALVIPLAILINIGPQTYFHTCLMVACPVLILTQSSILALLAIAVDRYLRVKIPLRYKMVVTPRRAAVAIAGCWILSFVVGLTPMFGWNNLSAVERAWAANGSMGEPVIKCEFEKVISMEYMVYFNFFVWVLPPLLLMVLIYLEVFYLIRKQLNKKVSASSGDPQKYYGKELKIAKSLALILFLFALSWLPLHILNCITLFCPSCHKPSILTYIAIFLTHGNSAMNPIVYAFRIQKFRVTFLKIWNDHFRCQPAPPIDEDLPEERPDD
Procedure, shortened: (§1)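 Racemates, plus selected enantiomers after chiral resolution, were tested at 25 °C, with a 60 min incubation for one subtype and 30 min for others. Non-specific binding was defined with 10 μM or 100 μM R-PIA. Bound radioactivity was counted after washing and filtration.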

[4] = molecular target: T3, hA2AAR (Homo sapiens, UniProt P29274); experiment: Radioligand binding competition, [3H]ZM241385, membranes from HeLa-A2A cells; conditions: 1 μM, [3H]ZM241385, human HeLa cells, n = 2
T3 construct: expressed in transfected cells; host or cells: HeLa (HeLa-A2A) cell membranes
T3 sequence (P29274 whole entry): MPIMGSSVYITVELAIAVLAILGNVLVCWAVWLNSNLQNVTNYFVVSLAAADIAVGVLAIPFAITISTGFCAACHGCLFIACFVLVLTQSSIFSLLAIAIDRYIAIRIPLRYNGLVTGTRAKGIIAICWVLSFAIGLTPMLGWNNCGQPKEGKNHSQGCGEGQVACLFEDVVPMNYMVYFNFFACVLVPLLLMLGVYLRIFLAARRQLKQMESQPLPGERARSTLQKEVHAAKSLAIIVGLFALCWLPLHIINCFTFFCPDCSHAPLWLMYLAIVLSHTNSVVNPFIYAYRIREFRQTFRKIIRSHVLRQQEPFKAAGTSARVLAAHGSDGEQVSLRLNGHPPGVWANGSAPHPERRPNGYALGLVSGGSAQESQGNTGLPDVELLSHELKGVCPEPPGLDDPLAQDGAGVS
Procedure, shortened: as §1

[5] = Human microsomal stability; format: in vitro ADME; conditions: human microsomes; for microsomal stability percent (percentage remanent): sampling time 60 min; for microsomal CLint at 1 h / half-life at 1 h: human, pH 7.4; for microsomal CLint at 1 h: read-out: microsomal stability Clint (intrinsic clearance); for half-life at 1 h: read-out: microsomal stability t1/2
Protocol: The human microsomal stability of selected compounds was evaluated by following a previously described method.[31] The human microsomes employed were purchased from Tebu-Xenotech. The compound was incubated with the microsomes at 37 °C in a 50 mM phosphate buffer (pH = 7.4) containing 3 mM MgCl2, 1 mM NADP, 10 mM glucose-6-phosphate, and 1 U/mL glucose-6-phosphate-dehydrogenase. Samples (75 μL) were taken from each well at 0, 10, 20, 40, and 60 min and transferred to a plate containing 4 °C 75 μL acetonitrile and 30 μL of 0.5% formic acid in water was added for improving the chromatographic conditions. The plate was centrifuged (46,000 g, 30 min), and supernatants were taken and analyzed in a UPLC-MS/MS (Xevo TQD, Waters) by employing a BEH C18 column and an isocratic gradient of 0.1% formic acid in water:0.1% formic acid acetonitrile (60:40). The metabolic stability of the compounds was calculated from the logarithm of the remaining compounds at each of the time point studied.

| SMILES | solubility at 4 h [1] [µM] | Blockade of NECA-induced changes in cellular impedance (AUC of normalized cell index) [2] | % at 1 μM hA1 (percentage displacement of specific binding) [3] [%] | % at 1 μM hA2A (percentage displacement of specific binding) [4] [%] | microsomal stability percent (percentage remanent) [5] [%] | microsomal CLint at 1 h [5] [µL/min/mg] | half-life at 1 h [5] [min] |
| --- | --- | --- | --- | --- | --- | --- | --- |
| CC1=C(C(=O)OC(C)C)C(c2ccco2)n2c(nc3cc(F)ccc32)N1 (stereo not drawn) [16b] | 47.5 (≈ 16.9 µg/mL) | significantly blocked | 11 | 2 | 19.83 | 20.1 | 27.4 |
| CC1=C(C(=O)OC(C)C)C(c2ccco2)n2c(nc3cc(Cl)ccc32)N1 (stereo not drawn) [16j] | 23.7 (≈ 8.81 µg/mL) | significantly blocked | 35 | 24 | 22.75 | 18.6 | 28.1 |
| CC1=C(C(=O)OC(C)C)C(c2ccco2)n2c(nc3cc(Br)ccc32)N1 (stereo not drawn) [16r] | 70.7 (≈ 29.4 µg/mL) | significantly blocked | 25 | 2 | 32.13 | 14.2 | 36.8 |
